These results are taken from patent US20230373937A1, “INHIBITORS OF SPINSTER HOMOLOG 2 (SPNS2) FOR USE IN THERAPY” (University of Virginia Patent Foundation, priority 2020, published 2023).

Counter-ions that a name gives are not always drawn. A value given as a limit tells only on which side of the number the result lay.

The target in the experiment is T1, SPNS2 (Mus musculus, UniProt Q91VM4).
T1 construct: expressed in transfected cells; host or cells: HeLa or U937 cells
T1 sequence (Q91VM4 1-549): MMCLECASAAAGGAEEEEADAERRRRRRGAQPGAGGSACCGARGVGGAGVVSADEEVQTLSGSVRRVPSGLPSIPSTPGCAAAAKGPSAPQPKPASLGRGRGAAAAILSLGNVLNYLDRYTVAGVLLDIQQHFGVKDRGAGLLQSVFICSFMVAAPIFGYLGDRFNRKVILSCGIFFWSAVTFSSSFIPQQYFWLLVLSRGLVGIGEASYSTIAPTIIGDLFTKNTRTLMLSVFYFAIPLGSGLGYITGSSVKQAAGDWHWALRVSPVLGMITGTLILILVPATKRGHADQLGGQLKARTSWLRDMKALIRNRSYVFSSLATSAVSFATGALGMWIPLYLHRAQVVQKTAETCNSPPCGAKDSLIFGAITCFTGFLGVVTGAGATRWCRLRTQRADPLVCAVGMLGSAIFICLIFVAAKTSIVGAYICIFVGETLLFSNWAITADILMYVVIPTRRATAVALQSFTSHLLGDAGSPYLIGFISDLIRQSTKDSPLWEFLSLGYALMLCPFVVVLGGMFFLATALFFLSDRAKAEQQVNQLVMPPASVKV
As to the kind of experiment: S1P transporter assay: S1P release from whole cells expressing SPNS2. It is filed as cell-based. The conditions noted are these: HeLa or U937 cells expressing mouse SPNS2; 18 hours; S1P in media measured by LC-MS; read-out: IC50 (in vitro inhibition against SPNS2). In a few lines: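 HeLa or U937 cells expressing mouse SPNS2 (human ortholog: U-937 with endogenous SPNS2), confluent, exposed 18 hours to test articles at 1×10-9–1×10^-4 M in serum-free RPMI with 0.2% fatty acid free BSA plus DOP, NaF and Na3VO4. Released S1P quantified by LC-MS against S1P-d7 standard, yielding IC50.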
One may read the IC50 as the concentration that inhibits the measured activity by half. Turning to `CCCCCCCCCCc1ccc(-c2noc(CNC(=O)[C@H]3CCCCN3)n2)cc1` [Compound 9t, (R)—N-((3-(4-decylphenyl)-1,2,4-oxadiazol-5-yl)methyl)piperidine-2-carboxamide hydrochloride], the IC50 was more than 2 µM.

Consider `CCCCCCCCCCc1ccc(-c2noc(CNC(=O)C3CCCCCN3)n2)cc1` (stereo not shown) [Compound 9u, N-((3-(4-decylphenyl)-1,2,4-oxadiazol-5-yl)methyl)azepane-2-carboxamide hydrochloride], for which the IC50 was not above 2 µM.

In the case of `CCCCCCCCCCc1ccc(-c2noc(CNC(=O)[C@@H]3C[C@H](O)CN3)n2)cc1` [Compound 9v, (2S,4S)—N-((3-(4-decylphenyl)-1,2,4-oxadiazol-5-yl)methyl)-4-hydroxypyrrolidine-2-carboxamide hydrochloride], the IC50 is more than 2 µM.

With `CCCCCCCCCCc1ccc(-c2noc(CNC(=O)[C@@H]3C[C@@H](O)CN3)n2)cc1` [Compound 9w, (2S,4R)—N-((3-(4-decylphenyl)-1,2,4-oxadiazol-5-yl)methyl)-4-hydroxypyrrolidine-2-carboxamide hydrochloride], the IC50 was more than 2 µM.

Turning to `CCCCCCCCCCc1ccc(-c2noc(CNC(=O)[C@H]3CCNC3)n2)cc1` [Compound 9x, (S)—N-((3-(4-decylphenyl)-1,2,4-oxadiazol-5-yl)methyl)pyrrolidine-3-carboxamide hydrochloride], the IC50 was more than 2 µM.

With `CCCCCCCCCCc1ccc(-c2noc(CNC(=O)C[C@@H](O)CN)n2)cc1` [Compound 9y, (R)-4-amino-N-((3-(4-decylphenyl)-1,2,4-oxadiazol-5-yl)methyl)-3-hydroxybutanamide hydrochloride], the IC50 was more than 2 µM.

Regarding `CCCCCCCCCCc1ccc(-c2noc(CNC(=O)[C@@H]3CCN3)n2)cc1` [Compound 9z, (S)—N-((3-(4-decylphenyl)-1,2,4-oxadiazol-5-yl)methyl)azetidine-2-carboxamide 2,2,2-trifluoroacetate], the IC50 is not above 2 µM.

Turning to `CCCCNC(=O)c1ccc(-c2noc([C@@H]3CCNC3)n2)cc1` [Compound 13a, (R)—N-butyl-4-(5-(pyrrolidin-3-yl)-1,2,4-oxadiazol-3-yl)benzamide hydrochloride], the IC50 was more than 2 µM.

As to `CCCCNC(=O)c1ccc(-c2noc(CCCN)n2)cc1` [Compound 13b, 4-(5-(3-aminopropyl)-1,2,4-oxadiazol-3-yl)-N-butylbenzamide hydrochloride], the IC50 is more than 2 µM.

As for `CCCCCCCCNC(=O)c1ccc(-c2noc([C@@H]3CCNC3)n2)cc1` [Compound 13c, (R)—N-octyl-4-(5-(pyrrolidin-3-yl)-1,2,4-oxadiazol-3-yl)benzamide hydrochloride], the IC50 is more than 2 µM.

For `CCCCCCCCNC(=O)c1ccc(-c2noc(CCCN)n2)cc1` [Compound 13d, 4-(5-(3-aminopropyl)-1,2,4-oxadiazol-3-yl)-N-octylbenzamide hydrochloride], the IC50 is more than 2 µM.

As for `CCCCCCCCCCc1ccc(-c2noc(C(=O)NCCN)n2)cc1` [Compound 16a, N-(2-aminoethyl)-3-(4-decylphenyl)-1,2,4-oxadiazole-5-carboxamide hydrochloride], the IC50 is not above 2 µM.

With `CCCCCCCCCCc1ccc(-c2noc(C(=O)NCCCN)n2)cc1` [Compound 16b, N-(3-aminopropyl)-3-(4-decylphenyl)-1,2,4-oxadiazole-5-carboxamide hydrochloride], the IC50 was more than 2 µM.

Regarding `CCCCCCCCCCc1ccc(-c2noc([C@@H](N)CCCCN)n2)cc1` [Compound 19a, (S)-1-(3-(4-decylphenyl)-1,2,4-oxadiazol-5-yl)pentane-1,5-diamine hydrochloride], the half-maximal inhibitory concentration (IC50) was not above 2 µM.

As for `CCCCCCCCCCc1ccc(-c2noc([C@@H](N)CCCN)n2)cc1` [Compound 19b, (S)-1-(3-(4-decylphenyl)-1,2,4-oxadiazol-5-yl)butane-1,4-diamine dihydrochloride], the IC50 is more than 2 µM.

As to `CCCCCCCCCCc1ccc(-c2noc([C@@H](N)CCN)n2)cc1` [Compound 19c, (S)-1-(3-(4-decylphenyl)-1,2,4-oxadiazol-5-yl)propane-1,3-diamine dihydrochloride], the IC50 is not above 2 µM.

`CCCCCCCCCCc1ccc(-c2noc([C@H](N)CCCCN)n2)cc1` [Compound 19d, (R)-1-(3-(4-decylphenyl)-1,2,4-oxadiazol-5-yl)pentane-1,5-diamine dihydrochloride]: the IC50 was more than 2 µM.

Turning to `CCCCCCCCCCc1ccc(-c2noc([C@H](CCCCN)NC(C)=O)n2)cc1` [Compound 21, (S)—N-(5-amino-1-(3-(4-decylphenyl)-1,2,4-oxadiazol-5-yl)pentyl)acetamide hydrochloride], the IC50 is more than 2 µM.

Turning to `C/C(=N\OCCCCc1ccccc1)c1ccc(-c2noc(CCCN)n2)cc1` [Compound 28, 1-(4-(5-(3-aminopropyl)-1,2,4-oxadiazol-3-yl)phenyl)ethan-1-one 0-(4-phenylbutyl) oxime hydrochloride], the IC50 is more than 2 µM.
